Laboratory results: the RepoRT retention time repository
Structures can show the parent of a compound that is named as a salt.

Experiment: RP, Thermo Scientific Hypersil GOLD, 1.9 µm, 40 °C, 0.4 mL/min; A: water + 0.1% formic acid, pH 3; B: acetonitrile + 0.1% formic acid, pH 3; gradient (min/%B) 0/0 1/0 11/100 13/100 14/0 16/0
Details: stereoisomer not certain

O=C(O)CC(CC(=O)O)C(=O)O [Tricarballylic acid]
LC retention time: 1.36 min

COC1=C(OC)C(=O)C(CC=C(C)C)=C(C)C1=O [coenzyme Q1]
LC retention time: 9.21 min

NC(CCO)C(=O)O (configuration not stated) [HOMOSERINE]
LC retention time: 0.62 min

CCC(C)C(N)C(=O)O (configuration not stated) [ISOLEUCINE]
LC retention time: 1.48 min

CSCC[C@H](NC=O)C(=O)O [N-FORMYL-L-METHIONINE]
LC retention time: 4.28 min

CC(=O)NC(CC(=O)O)C(=O)O (configuration not stated) [N-ACETYLASPARTATE]
LC retention time: 0.83 min

NC(CS)C(=O)NCC(=O)O (configuration not stated) [CYS-GLY]
LC retention time: 0.59 min

CC(=O)C1(O)CCC2C3CCC4=CC(=O)CCC4(C)C3CCC21C (configuration not stated) [17a-Hydroxyprogesterone]
LC retention time: 8.44 min

Cc1ncc(CO)c(C(=O)O)c1O [4-PYRIDOXATE]
LC retention time: 1.73 min

Cn1c(=O)[nH]c2[nH]c(=O)n(C)c2c1=O [1-7-Dimethyluric acid]
LC retention time: 4.27 min

CN(C)CC(=O)O [N-N-dimethylglycine]
LC retention time: 0.63 min

CCC(N)C(=O)O [alpha-aminobutyric acid (L-2-aminobutyric acid)]
LC retention time: 0.69 min

Nc1ccc(C(=O)NCC(=O)O)cc1 [Aminohippuric acid]
LC retention time: 1.77 min

NCC[Se][Se]CCN [SELENOCYSTAMINE]
LC retention time: 0.56 min

O=C(O)c1cc(O)ccc1O [2-5-DIHYDROXYBENZOATE]
LC retention time: 4.52 min

Cc1cc(O)cc2c1OC(C)(CCC(=O)O)CC2 (configuration not stated) [delta CEHC]
LC retention time: 6.88 min

Nc1ncnc2nc[nH]c12 [ADENINE]
LC retention time: 0.74 min

NCC(=O)CCC(=O)O [5-AMINOLEVULINATE]
LC retention time: 0.64 min

OCC(O)CO [GLYCEROL]
LC retention time: 0.68 min

C[S+](CCC(N)C(=O)[O-])CC1OC(n2cnc3c(N)ncnc32)C(O)C1O (configuration not stated) [S-ADENOSYLMETHIONINE]
LC retention time: 0.59 min

OCC1OC(OC2OC(CO)C(O)C(O)C2O)C(O)C(O)C1O (configuration not stated) [TREHALOSE]
LC retention time: 0.65 min

CC(CCC(=O)O)C1CCC2C3C(O)CC4CC(O)CCC4(C)C3CC(O)C12C (configuration not stated) [CHOLATE]
LC retention time: 8.17 min

Nc1cc(C(=O)O)ccc1[O-] [3-AMINO-4-HYDROXYBENZOATE]
LC retention time: 0.82 min

CCCCCCCC=CC(=O)OC(CC(=O)[O-])C[N+](C)(C)C (stereo not drawn) [Trans -2-decenoyl-l-carnitine]
LC retention time: 7.45 min

O=C1OC(C(O)CO)C(O)C1O [L-GULONOLACTONE]
LC retention time: 0.66 min

N[C@@H](Cc1ccc(O)c([N+](=O)[O-])c1)C(=O)O [3-NITRO-L-TYROSINE]
LC retention time: 3.77 min

O=c1[nH]c(=O)c2[nH]cnc2[nH]1 [XANTHINE]
LC retention time: 0.82 min

CCCCCCSCC(NC(=O)CCC(N)C(=O)O)C(=O)NCC(=O)O (configuration not stated) [S-HEXYL-GLUTATHIONE]
LC retention time: 6.32 min

Cc1cc2nc3[nH]c(=O)[nH]c(=O)c3nc2cc1C [LUMICHROME]
LC retention time: 6.03 min

OCC1OC(OCC2OC(O)C(O)C(O)C2O)C(O)C(O)C1O (configuration not stated) [MELIBIOSE]
LC retention time: 0.63 min

Cc1ccccc1C(=O)NCC(=O)O [2-Methylhippuric acid (ortho-Methylhippuric acid)]
LC retention time: 5.31 min

CC(CCC(=O)O)C1CCC2C3C(O)C(O)C4CC(O)CCC4(C)C3CCC12C (configuration not stated) [5b-cholanic acid-3a-6a-7a-TRIOL]
LC retention time: 7.96 min

O=C(O)c1ccc2ccccc2c1[O-] [1-HYDROXY-2-NAPHTHOATE]
LC retention time: 8.24 min

O=P(O)(O)OCC(O)CO (configuration not stated) [GLYCEROL 3-PHOSPHATE]
LC retention time: 0.67 min

CCCCCCCCCCCCCCCC(=O)OC(CC(=O)[O-])C[N+](C)(C)C [Palmitoyl-L-carnitine]
LC retention time: 9.69 min

CCCCCCCCCCCC(=O)OC(CC(=O)[O-])C[N+](C)(C)C (configuration not stated) [LAUROYLCARNITINE]
LC retention time: 8.63 min

O=C([O-])CCc1ccccc1O [3-(2-HYDROXYPHENYL)PROPANOATE]
LC retention time: 5.92 min

NCc1ccccc1 [BENZYLAMINE]
LC retention time: 3.59 min

O=c1c(OC2OC(CO)C(O)C(O)C2O)c(-c2ccc(O)c(O)c2)oc2cc(O)cc(O)c12 [Quercetin-3-beta-D-glucoside]
LC retention time: 5.53 min

CCCCCCC=CCCCCCCCC(=O)O [PALMITOLEATE]
LC retention time: 11.7 min

O=c1cc[nH]c(=O)[nH]1 [URACIL]
LC retention time: 0.84 min

CC(=O)C1C(=O)C=C(C)OC1=O (configuration not stated) [Dehydroacetic acid]
LC retention time: 6.42 min

NCCCCC(=O)O [5-AMINOPENTANOATE]
LC retention time: 0.71 min

NC(Cc1cc(I)c(Oc2ccc(O)cc2)c(I)c1)C(=O)O [3-5-DIIODO-L-THYRONINE]
LC retention time: 6.31 min

C[N+](C)(C)[O-] [trimethylamine N-oxide]
LC retention time: 0.64 min

CC(=O)c1ccc(O)cc1O [2'-4'-DIHYDROXYACETOPHENONE]
LC retention time: 6.1 min

CCCCCCCCCCCCCCCC(O)C(N)CO (configuration not stated) [SPHINGANINE]
LC retention time: 9.45 min

OCC1OCC(O)C(O)C1O [1-5-Anhydro-D-sorbitol]
LC retention time: 0.7 min

NCCc1ccc(O)c(O)c1 [DOPAMINE]
LC retention time: 0.83 min

NC(=O)c1ccc[n+](C2OC(COP(=O)(O)OP(=O)(O)OCC3OC(n4cnc5c(N)ncnc54)C(OP(=O)(O)O)C3O)C(O)C2O)c1 (configuration not stated) [NADP]
LC retention time: 4.21 min

CC(C)(CO)C(O)C(=O)NCCC(=O)O (configuration not stated) [PANTOTHENATE]
LC retention time: 4.11 min

CCCCCCCCCCCCCCCCCCCC(=O)O [ARACHIDATE]
LC retention time: 13.5 min

O=C(O)C(O)c1cccc(O)c1 (configuration not stated) [3-Hydroxymandelic acid]
LC retention time: 2.66 min

CC(=O)NC(CCC(=O)O)C(=O)O (configuration not stated) [N-ACETYLGLUTAMATE]
LC retention time: 0.93 min

OCC(O)C(O)C(O)CO (configuration not stated) [RIBITOL]
LC retention time: 0.64 min

O=P(O)(O)O [Phosphoric acid_+H+]
LC retention time: 0.64 min

O=C1CCC(C(=O)O)N1 (configuration not stated) [OXOPROLINE]
LC retention time: 0.82 min

NCCCCCN [CADAVERINE]
LC retention time: 0.55 min

O=C1CC(C(=O)O)NC(=O)N1 (configuration not stated) [DIHYDROOROTATE]
LC retention time: 0.77 min

Cn1cncc1CCN [3-METHYLHISTAMINE]
LC retention time: 0.57 min

O=C(O)c1cccnc1C(=O)O [QUINOLINATE]
LC retention time: 1.22 min

CC(=O)NC(C(=O)O)C(C)C (racemic) [N-acetyl-DL-valine]
LC retention time: 4.62 min

Nc1nc2c(ncn2C2OC3COP(=O)(O)OC3C2O)c(=O)[nH]1 (configuration not stated) [CYCLIC GMP]
LC retention time: 1.29 min

CC(C)=CCCC(C)C1CCC2C3CC=C4CC(O)CCC4(C)C3CCC12C (configuration not stated) [DESMOSTEROL]
LC retention time: 13.9 min

O=C(O)CCCCCCC(=O)O [SUBERATE]
LC retention time: 5.58 min

COC(=O)CCCCC(=O)O [mono-Methyl adipate]
LC retention time: 5.42 min

O=C(O)C(O)c1ccc(O)c(O)c1 (configuration not stated) [3-4 DIHYDROXYMANDELATE]
LC retention time: 0.91 min

CC(C)C(C(=O)O)C(O)C(=O)O (configuration not stated) [3-isopropylmalic acid]
LC retention time: 4.68 min

O=C(O)CCCCC1CCSS1 (racemic)
LC retention time: 7.53 min

O=P(O)(O)OCC1OC(O)C(O)C1O [D-RIBOSE 5-PHOSPHATE]
LC retention time: 0.65 min

NC(=O)NCCCC(N)C(=O)O (configuration not stated) [CITRULLINE]
LC retention time: 0.65 min

Cc1cc2nc3c(=O)[nH]c(=O)nc-3n(CC(O)C(O)C(O)CO)c2cc1C (configuration not stated) [RIBOFLAVIN]
LC retention time: 5.05 min

O=c1c(-c2ccc(O)cc2)coc2cc(OC3OC(CO)C(O)C(O)C3O)ccc12 (configuration not stated) [daidzin]
LC retention time: 5.24 min

O=c1[nH]cc(CO)c(=O)[nH]1 [5-HYDROXYMETHYLURACIL]
LC retention time: 0.82 min

NC(CCOC(=O)CCC(=O)O)C(=O)O (configuration not stated) [O-SUCCINYL-HOMOSERINE]
LC retention time: 0.82 min

Nc1ccc(C(=O)O)cn1 [6-Aminopyridine-3-carboxylic acid]
LC retention time: 0.87 min

NC(=O)CC[C@H](N)C(=O)O [L-Glutamine]
LC retention time: 0.62 min

O=S(=O)(O)Oc1c[nH]c2ccccc12 [INDOXYL SULFATE]
LC retention time: 4.77 min

C#CC1(O)CCC2C3CCc4cc(O)ccc4C3CCC21C (racemic)
LC retention time: 8.17 min

O=c1[nH]c(=O)c2nccnc2[nH]1 [2-4-DIHYDROXYPTERIDINE]
LC retention time: 0.96 min

CC(O)(CC(=O)O)CC(=O)O [3-HYDROXYMETHYLGLUTARATE]
LC retention time: 1.48 min

CC(=O)NC(Cc1c[nH]c2ccccc12)C(=O)O (configuration not stated) [N-ACETYLTRYPTOPHAN]
LC retention time: 5.83 min

Cn1c[n+](C2OC(CO)C(O)C2O)c2nc(N)[nH]c(=O)c21 (configuration not stated) [7-Methylguanosine]
LC retention time: 0.83 min

O=CCc1c[nH]c2ccccc12 [INDOLEACETALDEHYDE]
LC retention time: 4.34 min

NC(=O)Cc1c[nH]c2ccccc12 [INDOLE-3-ACETAMIDE]
LC retention time: 5.37 min

O=C(O)CC(O)(CC(=O)O)C(=O)O [CITRATE]
LC retention time: 0.9 min

CC(CCC(=O)O)C1CCC2C3C(O)CC4CC(O)CCC4(C)C3CCC12C (configuration not stated) [CHENODEOXYCHOLATE]
LC retention time: 9.15 min

Cc1ncc(C[n+]2csc(CCOP(=O)(O)O)c2C)c(N)n1 [THIAMINE MONOPHOSPHATE]
LC retention time: 0.63 min

NC(=O)c1ccc[n+](C2OC(COP(=O)([O-])O)C(O)C2O)c1 (configuration not stated) [NICOTINAMIDE MONONUCLEOTIDE]
LC retention time: 0.68 min

NC(=O)NC1NC(=O)NC1=O (configuration not stated) [ALLANTOIN]
LC retention time: 0.67 min

CC(=O)OCC(N)C(=O)O (configuration not stated) [O-ACETYLSERINE]
LC retention time: 0.69 min

NCCCNCCCN [NORSPERMIDINE]
LC retention time: 0.49 min

CC(C)CC(=O)OC(CC(=O)[O-])C[N+](C)(C)C [Isovaleryl-L-carnitine]
LC retention time: 4.92 min

CCN(CC)CCCC(C)Nc1c2ccc(Cl)cc2nc2ccc(OC)cc12 (configuration not stated) [quinacrine]
LC retention time: 5.61 min

Nc1ccn(C2CC(O)C(CO)O2)c(=O)n1 (configuration not stated) [DEOXYCYTIDINE]
LC retention time: 0.83 min

O=c1c(O)c(-c2ccc(O)c(O)c2)oc2cc(O)cc(O)c12 [quercetine dihydrate]
LC retention time: 6.55 min

Nc1nc2c(ncn2C2CC(O)C(CO)O2)c(=O)[nH]1 (configuration not stated) [DEOXYGUANOSINE]
LC retention time: 1.77 min
